Experiment: Quantification of garlic-derived metabolites in human urine after ingestion of 3 g raw garlic (SIDA, SAFE, HRGC-MS / HRGC-GC-MS)
Type: in vivo
Conditions: for metabolite concentration in urine / metabolite concentration in urine, creatinine-normalized: 3 g raw garlic
From the text: Human urine samples were obtained from 18 volunteers (age 22–38 years, mean 27 years; 11 females, 7 males); thereby, one volunteer conducted the whole experimental series twice. At the time of examination, volunteers reported no known illness that might have potentially influenced the metabolism or the excretion of urine. The test persons were instructed to avoid foods that were rich in sulfur-containing substances at the testing day as well as 2 days preceding the testing day, namely garlic, onion, wild garlic, chives, cabbage, and leek, and were only allowed to consume the garlic sample provided in the course of the experiments. Additionally, subjects were asked to keep records of the food (including food supplements) and beverages they consumed during these 3 testing days. Generally, the overall panelists' requirements were in accordance with our previous studies ([5], [16]).
On the sampling day, the outer garlic cloves of a whole garlic bulb were peeled and cut into ~3 mm cubes by using a garlic cutter (Genius GmbH, Limburg/Lahn, Germany). Subsequently these cubes were thoroughly mixed and aliquoted into 3 g portions. Three to four test persons conducted the experiment at the same day. Each test person was asked to ingest a garlic portion of 3 g. In total, eight consecutive urine samples were provided by each test person, comprising one whole urine set. The samples were collected in sterile brown glass bottles, with sampling times as follows: one sample was provided directly prior to garlic consumption. The series of the second to eighth sample was then obtained at about 0.5, 1, 2, 4, 6, 8, and 24 h after garlic consumption, respectively. Between the first urine sample (prior to garlic consumption) and the seventh urine sample (8 h after garlic consumption) test persons only spent urine at the specific time points mentioned before. Another sample was provided at the next morning (24 h after garlic consumption). Between the samples provided 8 and 24 h after garlic consumption no urine was collected. All samples were immediately placed into a −80°C freezer and were kept frozen until further analysis.
The samples of each set were termed according to their sampling time. The following list provides the time intervals that are related to the respective sample name: • - pre: before garlic consumption • - 0.5 h post: 0.4–0.8 h after garlic consumption • - 1 h post: 0.9–1.3 h after garlic consumption • - 2 h post: 1.8 h−2.2 h after garlic consumption • - 4 h post: 3.8–4.4 h after garlic consumption • - 6 h post: 5.8–6.4 h after garlic consumption • - 8 h post: 7.8–8.4 h after garlic consumption • - 24 h post: 23.8–25.6 h after garlic consumption
A creatinine kit (Labor+Technik Eberhard Lehmann GmbH, Berlin, Germany) was used to determine the creatinine content in each urine sample. The determination principle of this kit is based on the reaction of creatinine with picric acid under basic conditions (Jaffé reaction). The formed complex was detected photometrically at a wavelength of 492 nm.
For quantification purposes, the deuterated standards ^2H3-AMS, ^2H3-AMSO, and ^2H3-AMSO2 were added to the sample and stirred for 10 min. Subsequently, DCM was added in a ratio of 1:2 (DCM/human urine; v/v) and this solution was stirred for further 30 min at room temperature. To isolate the volatile fraction from the urine samples we then applied SAFE-distillation ([17]), thereby distilling the respective samples at 50°C. After completion of the distillation process, 10 mL of DCM were applied in each case to rinse the SAFE apparatus and to ensure complete transition of the volatile compounds. This process was repeated with another 10 mL of DCM. After thawing, the obtained aqueous distillate phase was extracted three times with 25 mL DCM. The organic phases were combined, dried over anhydrous Na2SO4 and concentrated to a total volume of 100 μL by means of Vigreux distillation and subsequent micro-distillation at 50°C. […]

metabolite concentration in urine (U I, 0.5 h post (0.55 h)): 0.9 µg/kg
metabolite concentration in urine, creatinine-normalized (U I, 0.5 h post (0.55 h)): 0.1 µg/mmol creatinine
metabolite concentration in urine (U I, 1 h post (1.03 h)): 0.7 µg/kg
metabolite concentration in urine, creatinine-normalized (U I, 1 h post (1.03 h)): 0.8 µg/mmol creatinine
metabolite concentration in urine (U I, 2 h post (2.05 h)): 1.7 µg/kg
metabolite concentration in urine, creatinine-normalized (U I, 2 h post (2.05 h)): 0.8 µg/mmol creatinine
metabolite concentration in urine (U I, 4 h post (4.05 h)): 1.6 µg/kg
metabolite concentration in urine, creatinine-normalized (U I, 4 h post (4.05 h)): 0.2 µg/mmol creatinine
metabolite concentration in urine (U I, 6 h post (6.05 h)): 1.5 µg/kg
metabolite concentration in urine, creatinine-normalized (U I, 6 h post (6.05 h)): 0.2 µg/mmol creatinine
metabolite concentration in urine (U I, 8 h post (8.05 h)): 0.7 µg/kg
metabolite concentration in urine, creatinine-normalized (U I, 8 h post (8.05 h)): 0.1 µg/mmol creatinine
metabolite concentration in urine (U I, 24 h post (25.55 h)): traces^1
metabolite concentration in urine, creatinine-normalized (U I, 24 h post (25.55 h)): traces^1
metabolite concentration in urine (U I, pre (-0.03 h)): < LOD^1
metabolite concentration in urine, creatinine-normalized (U I, pre (-0.03 h)): < LOD^1
metabolite concentration in urine (U II, 0.5 h post (0.50 h)): 0.5 µg/kg
metabolite concentration in urine, creatinine-normalized (U II, 0.5 h post (0.50 h)): 0.1 µg/mmol creatinine
metabolite concentration in urine (U II, 1 h post (1.00 h)): 0.9 µg/kg
metabolite concentration in urine, creatinine-normalized (U II, 1 h post (1.00 h)): 0.3 µg/mmol creatinine
metabolite concentration in urine (U II, 2 h post (2.00 h)): 0.5 µg/kg
metabolite concentration in urine, creatinine-normalized (U II, 2 h post (2.00 h)): 0.4 µg/mmol creatinine
metabolite concentration in urine (U II, 4 h post (4.00 h)): 0.7 µg/kg
metabolite concentration in urine, creatinine-normalized (U II, 4 h post (4.00 h)): 0.1 µg/mmol creatinine
metabolite concentration in urine (U II, 6 h post (6.00 h)): 0.4 µg/kg
metabolite concentration in urine, creatinine-normalized (U II, 6 h post (6.00 h)): 0.04 µg/mmol creatinine
metabolite concentration in urine (U II, 8 h post (8.00 h)): 0.2 µg/kg
metabolite concentration in urine, creatinine-normalized (U II, 8 h post (8.00 h)): 0.02 µg/mmol creatinine
metabolite concentration in urine (U II, 24 h post (24.12 h)): traces^1
metabolite concentration in urine, creatinine-normalized (U II, 24 h post (24.12 h)): traces^1
metabolite concentration in urine (U II, pre (-0.13 h)): < LOD^1
metabolite concentration in urine, creatinine-normalized (U II, pre (-0.13 h)): < LOD^1
metabolite concentration in urine (U III, 0.5 h post (0.53 h)): 0.6 µg/kg
metabolite concentration in urine, creatinine-normalized (U III, 0.5 h post (0.53 h)): 0.3 µg/mmol creatinine
metabolite concentration in urine (U III, 1 h post (1.07 h)): 0.6 µg/kg
metabolite concentration in urine, creatinine-normalized (U III, 1 h post (1.07 h)): 0.8 µg/mmol creatinine
metabolite concentration in urine (U III, 2 h post (2.18 h)): 1.2 µg/kg
metabolite concentration in urine, creatinine-normalized (U III, 2 h post (2.18 h)): 0.7 µg/mmol creatinine
metabolite concentration in urine (U III, 4 h post (4.35 h)): 0.8 µg/kg
metabolite concentration in urine, creatinine-normalized (U III, 4 h post (4.35 h)): 0.3 µg/mmol creatinine
metabolite concentration in urine (U III, 6 h post (6.35 h)): 0.6 µg/kg
metabolite concentration in urine, creatinine-normalized (U III, 6 h post (6.35 h)): 0.1 µg/mmol creatinine
metabolite concentration in urine (U III, 8 h post (8.43 h)): 0.4 µg/kg
metabolite concentration in urine, creatinine-normalized (U III, 8 h post (8.43 h)): 0.1 µg/mmol creatinine
metabolite concentration in urine (U III, 24 h post (23.90 h)): traces^1
metabolite concentration in urine, creatinine-normalized (U III, 24 h post (23.90 h)): traces^1
metabolite concentration in urine (U III, pre (-0.03 h)): traces^1
metabolite concentration in urine, creatinine-normalized (U III, pre (-0.03 h)): traces^1
metabolite concentration in urine (U IV, 0.5 h post (0.55 h)): 0.7 µg/kg
metabolite concentration in urine, creatinine-normalized (U IV, 0.5 h post (0.55 h)): 0.1 µg/mmol creatinine
metabolite concentration in urine (U IV, 1 h post (1.05 h)): 0.7 µg/kg
metabolite concentration in urine, creatinine-normalized (U IV, 1 h post (1.05 h)): 0.5 µg/mmol creatinine
metabolite concentration in urine (U IV, 2 h post (2.12 h)): 0.7 µg/kg
metabolite concentration in urine, creatinine-normalized (U IV, 2 h post (2.12 h)): 0.4 µg/mmol creatinine
metabolite concentration in urine (U IV, 4 h post (4.05 h)): 0.8 µg/kg
metabolite concentration in urine, creatinine-normalized (U IV, 4 h post (4.05 h)): 0.2 µg/mmol creatinine
metabolite concentration in urine (U IV, 6 h post (6.08 h)): 0.6 µg/kg
metabolite concentration in urine, creatinine-normalized (U IV, 6 h post (6.08 h)): 0.04 µg/mmol creatinine
metabolite concentration in urine (U IV, 8 h post (8.05 h)): 0.3 µg/kg
metabolite concentration in urine, creatinine-normalized (U IV, 8 h post (8.05 h)): 0.1 µg/mmol creatinine
metabolite concentration in urine (U IV, 24 h post (24.03 h)): 0.5 µg/kg
metabolite concentration in urine, creatinine-normalized (U IV, 24 h post (24.03 h)): 0.1 µg/mmol creatinine
metabolite concentration in urine (U IV, pre (-0.05 h)): < LOD^1
metabolite concentration in urine, creatinine-normalized (U IV, pre (-0.05 h)): < LOD^1
metabolite concentration in urine (U IX, 0.5 h post (0.67 h)): 1.0 µg/kg
metabolite concentration in urine, creatinine-normalized (U IX, 0.5 h post (0.67 h)): 0.9 µg/mmol creatinine
metabolite concentration in urine (U IX, 1 h post (1.17 h)): 1.5 µg/kg
metabolite concentration in urine, creatinine-normalized (U IX, 1 h post (1.17 h)): 1.4 µg/mmol creatinine
metabolite concentration in urine (U IX, 2 h post (1.83 h)): 1.4 µg/kg
metabolite concentration in urine, creatinine-normalized (U IX, 2 h post (1.83 h)): 1.2 µg/mmol creatinine
metabolite concentration in urine (U IX, 4 h post (4.17 h)): 2.5 µg/kg
metabolite concentration in urine, creatinine-normalized (U IX, 4 h post (4.17 h)): 0.5 µg/mmol creatinine
metabolite concentration in urine (U IX, 6 h post (6.08 h)): 1.7 µg/kg
metabolite concentration in urine, creatinine-normalized (U IX, 6 h post (6.08 h)): 0.5 µg/mmol creatinine
metabolite concentration in urine (U IX, 8 h post (8.08 h)): 0.8 µg/kg
metabolite concentration in urine, creatinine-normalized (U IX, 8 h post (8.08 h)): 0.1 µg/mmol creatinine
metabolite concentration in urine (U IX, 24 h post (24.00 h)): traces^1
metabolite concentration in urine, creatinine-normalized (U IX, 24 h post (24.00 h)): traces^1
metabolite concentration in urine (U IX, pre (-0.08 h)): < LOD^1
metabolite concentration in urine, creatinine-normalized (U IX, pre (-0.08 h)): < LOD^1
metabolite concentration in urine (U V, 0.5 h post (0.50 h)): 0.5 µg/kg
metabolite concentration in urine, creatinine-normalized (U V, 0.5 h post (0.50 h)): 0.7 µg/mmol creatinine
metabolite concentration in urine (U V, 1 h post (1.00 h)): 0.7 µg/kg
metabolite concentration in urine, creatinine-normalized (U V, 1 h post (1.00 h)): 0.8 µg/mmol creatinine
metabolite concentration in urine (U V, 2 h post (2.00 h)): 0.7 µg/kg
metabolite concentration in urine, creatinine-normalized (U V, 2 h post (2.00 h)): 0.8 µg/mmol creatinine
metabolite concentration in urine (U V, 4 h post (4.00 h)): 0.9 µg/kg
metabolite concentration in urine, creatinine-normalized (U V, 4 h post (4.00 h)): 0.3 µg/mmol creatinine
metabolite concentration in urine (U V, 6 h post (6.00 h)): 0.7 µg/kg
metabolite concentration in urine, creatinine-normalized (U V, 6 h post (6.00 h)): 0.1 µg/mmol creatinine
metabolite concentration in urine (U V, 8 h post (8.00 h)): 0.3 µg/kg
metabolite concentration in urine, creatinine-normalized (U V, 8 h post (8.00 h)): 0.2 µg/mmol creatinine
metabolite concentration in urine (U V, 24 h post (24.00 h)): traces^1
metabolite concentration in urine, creatinine-normalized (U V, 24 h post (24.00 h)): traces^1
metabolite concentration in urine (U V, pre (-0.05 h)): < LOD^1
metabolite concentration in urine, creatinine-normalized (U V, pre (-0.05 h)): < LOD^1
metabolite concentration in urine (U VI, 0.5 h post (0.50 h)): 1.1 µg/kg
metabolite concentration in urine, creatinine-normalized (U VI, 0.5 h post (0.50 h)): 0.5 µg/mmol creatinine
metabolite concentration in urine (U VI, 1 h post (1.00 h)): 0.7 µg/kg
metabolite concentration in urine, creatinine-normalized (U VI, 1 h post (1.00 h)): 0.6 µg/mmol creatinine
metabolite concentration in urine (U VI, 2 h post (2.00 h)): 1.0 µg/kg
metabolite concentration in urine, creatinine-normalized (U VI, 2 h post (2.00 h)): 0.9 µg/mmol creatinine
metabolite concentration in urine (U VI, 4 h post (4.00 h)): 1.2 µg/kg
metabolite concentration in urine, creatinine-normalized (U VI, 4 h post (4.00 h)): 0.3 µg/mmol creatinine
metabolite concentration in urine (U VI, 6 h post (6.00 h)): 0.9 µg/kg
metabolite concentration in urine, creatinine-normalized (U VI, 6 h post (6.00 h)): 0.2 µg/mmol creatinine
metabolite concentration in urine (U VI, 8 h post (8.00 h)): 0.5 µg/kg
metabolite concentration in urine, creatinine-normalized (U VI, 8 h post (8.00 h)): 0.1 µg/mmol creatinine
metabolite concentration in urine (U VI, 24 h post (24.17 h)): traces^1
metabolite concentration in urine, creatinine-normalized (U VI, 24 h post (24.17 h)): traces^1
metabolite concentration in urine (U VI, pre (-0.05 h)): < LOD^1
metabolite concentration in urine, creatinine-normalized (U VI, pre (-0.05 h)): < LOD^1
metabolite concentration in urine (U VII, 0.5 h post (0.50 h)): 0.6 µg/kg
metabolite concentration in urine, creatinine-normalized (U VII, 0.5 h post (0.50 h)): 0.5 µg/mmol creatinine
metabolite concentration in urine (U VII, 1 h post (1.08 h)): 1.3 µg/kg
Structure (SMILES): C=CCSC [AMS, allyl methyl sulfide]
concentration in urine compared with human milk (3 g raw garlic in both studies, milk data ref 20): comparable excretion levels in both media
